According to PubChem BioAssay (NCI):
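Assay format: 96-well plates, 48-hour exposure. Here, GI50 denotes the concentration required for 50% inhibition of growth. TGI: total growth inhibition.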

Key:
Experiment in all cases: NCI tumour cell line growth inhibition, 48 h
ACHN renal = test system: ACHN renal
RPMI-8226 leukemia = test system: RPMI-8226 leukemia
UACC-62 melanoma = test system: UACC-62 melanoma
MOLT-4 leukemia = test system: MOLT-4 leukemia
SF-295 CNS = test system: SF-295 CNS
SK-MEL-2 melanoma = test system: SK-MEL-2 melanoma
SK-MEL-28 melanoma = test system: SK-MEL-28 melanoma
UACC-257 melanoma = test system: UACC-257 melanoma
NCI-H460 lung = test system: NCI-H460 lung
HOP-62 NSCLC = test system: HOP-62 NSCLC
NCI/ADR-RES ovarian = test system: NCI/ADR-RES ovarian

CCc1cccc(C)c1NC(=O)CC1C(=O)Nc2ccccc2S1(=O)=O (stereo not given)
TGI (ACHN renal): 47.4 µM
TGI (RPMI-8226 leukemia): 40.4 µM
TGI (UACC-62 melanoma): 41.1 µM
TGI (MOLT-4 leukemia): 36 µM
TGI (SF-295 CNS): 82.1 µM
TGI (SK-MEL-2 melanoma): 53.5 µM
TGI (SK-MEL-28 melanoma): 48.1 µM
TGI (UACC-257 melanoma): 82.7 µM
TGI (NCI-H460 lung): 27.9 µM

Brc1ccc2c(-c3csc(-c4c[nH]c5ccccc45)n3)c[nH]c2c1
TGI (ACHN renal): 32.1 µM
TGI (RPMI-8226 leukemia): 46.6 µM
TGI (UACC-62 melanoma): 35.9 µM
GI50 (MOLT-4 leukemia): 19.9 µM
TGI (MOLT-4 leukemia): 36.3 µM
GI50 (SF-295 CNS): 14.6 µM
TGI (SF-295 CNS): 29.5 µM
TGI (SK-MEL-28 melanoma): 31 µM
TGI (HOP-62 NSCLC): 30.8 µM
TGI (UACC-257 melanoma): 50.7 µM
TGI (NCI-H460 lung): 34.4 µM
TGI (NCI/ADR-RES ovarian): 35.9 µM

O=C(CSc1nc2ccccc2c(=O)n1-c1ccccc1)N=Nc1c(O)[nH]c2ccc(F)cc12
TGI (RPMI-8226 leukemia): 4.65 µM
TGI (UACC-62 melanoma): 4.82 µM
TGI (MOLT-4 leukemia): 3.43 µM
TGI (SK-MEL-2 melanoma): 3.59 µM
TGI (SK-MEL-28 melanoma): 4.54 µM
TGI (HOP-62 NSCLC): 6.77 µM
TGI (UACC-257 melanoma): 6 µM
TGI (NCI-H460 lung): 4.69 µM
TGI (NCI/ADR-RES ovarian): 5.48 µM

NC(CSSCC(N)Cc1ccccc1)Cc1ccccc1 (stereo not given)
TGI (ACHN renal): > 100 µM
TGI (RPMI-8226 leukemia): > 100 µM
TGI (UACC-62 melanoma): 44.9 µM
TGI (MOLT-4 leukemia): > 100 µM
TGI (SF-295 CNS): > 100 µM
TGI (SK-MEL-2 melanoma): 88.7 µM
TGI (SK-MEL-28 melanoma): > 100 µM
TGI (HOP-62 NSCLC): > 100 µM
TGI (UACC-257 melanoma): > 100 µM
TGI (NCI-H460 lung): > 100 µM

CC(=O)c1c2n(n(-c3ccccc3)c1=O)C(=O)c1nccnc1-2
TGI (ACHN renal): > 100 µM
TGI (RPMI-8226 leukemia): > 100 µM
TGI (UACC-62 melanoma): > 100 µM
TGI (MOLT-4 leukemia): > 100 µM
TGI (SF-295 CNS): > 100 µM
TGI (SK-MEL-2 melanoma): > 100 µM
TGI (SK-MEL-28 melanoma): > 100 µM
TGI (UACC-257 melanoma): > 100 µM
TGI (NCI-H460 lung): > 100 µM
TGI (NCI/ADR-RES ovarian): > 100 µM

COc1ccc2c(c1)OC[C@@H]1c3cc(O)c(OCc4ccccc4)cc3O[C@H]21
TGI (ACHN renal): > 100 µM
TGI (RPMI-8226 leukemia): 49 µM
TGI (UACC-62 melanoma): > 100 µM
TGI (MOLT-4 leukemia): > 100 µM
TGI (SF-295 CNS): > 100 µM
TGI (SK-MEL-2 melanoma): 60.8 µM
TGI (SK-MEL-28 melanoma): > 100 µM
TGI (HOP-62 NSCLC): > 100 µM
TGI (UACC-257 melanoma): 51.4 µM
TGI (NCI-H460 lung): 35.7 µM

C=CCn1c(-c2ccc([N+](=O)[O-])cc2)csc1=N
TGI (ACHN renal): > 100 µM
TGI (UACC-62 melanoma): > 100 µM
TGI (SF-295 CNS): > 100 µM
TGI (SK-MEL-2 melanoma): > 100 µM
TGI (SK-MEL-28 melanoma): > 100 µM
TGI (HOP-62 NSCLC): > 100 µM
TGI (UACC-257 melanoma): > 100 µM
TGI (NCI-H460 lung): > 100 µM
TGI (NCI/ADR-RES ovarian): > 100 µM

O=C1/C(=C/c2ccc(Br)cc2)CCC/C1=C\c1ccc(Br)cc1
TGI (ACHN renal): 29.8 µM
TGI (RPMI-8226 leukemia): 5.26 µM
TGI (UACC-62 melanoma): 39.9 µM
TGI (MOLT-4 leukemia): 23.5 µM
TGI (SK-MEL-2 melanoma): 63 µM
TGI (SK-MEL-28 melanoma): 14.1 µM
TGI (HOP-62 NSCLC): 53.3 µM
TGI (UACC-257 melanoma): 16.2 µM
TGI (NCI-H460 lung): 28.8 µM

O=C1NCCS(=O)(=O)N2CCC[C@@H]12
TGI (ACHN renal): > 100 µM
TGI (RPMI-8226 leukemia): > 100 µM
TGI (UACC-62 melanoma): > 100 µM
TGI (MOLT-4 leukemia): > 100 µM
TGI (SF-295 CNS): > 100 µM
TGI (SK-MEL-28 melanoma): > 100 µM
TGI (HOP-62 NSCLC): > 100 µM
TGI (UACC-257 melanoma): > 100 µM
TGI (NCI-H460 lung): > 100 µM

CCOC(=O)c1c(-c2cccc3ccccc23)c(C#N)c(=S)n(C2OC(COC(C)=O)C(OC(C)=O)C(OC(C)=O)C2OC(C)=O)c1C (stereo not given)
TGI (ACHN renal): > 100 µM
TGI (UACC-62 melanoma): > 100 µM
TGI (MOLT-4 leukemia): > 100 µM
TGI (SF-295 CNS): > 100 µM
TGI (SK-MEL-2 melanoma): > 100 µM
TGI (SK-MEL-28 melanoma): > 100 µM
TGI (HOP-62 NSCLC): > 100 µM
TGI (UACC-257 melanoma): > 100 µM
TGI (NCI-H460 lung): > 100 µM
TGI (NCI/ADR-RES ovarian): > 100 µM

CC1(C)N=C(c2ccccn2)C(c2ccccn2)=NC1(C)C
TGI (ACHN renal): > 100 µM
TGI (RPMI-8226 leukemia): > 100 µM
TGI (UACC-62 melanoma): > 100 µM
TGI (MOLT-4 leukemia): > 100 µM
TGI (SF-295 CNS): > 100 µM
TGI (SK-MEL-2 melanoma): > 100 µM
TGI (UACC-257 melanoma): > 100 µM
TGI (NCI-H460 lung): > 100 µM
